# According to patent publication US6492137B1, “Response element compositions and assays employing same” (The Salk Institute for Biological Studies, priority 1989, dated 2002):
# Molecular target: T1, RARα (Homo sapiens, UniProt P10276)
# T1 sequence (P10276 1-462): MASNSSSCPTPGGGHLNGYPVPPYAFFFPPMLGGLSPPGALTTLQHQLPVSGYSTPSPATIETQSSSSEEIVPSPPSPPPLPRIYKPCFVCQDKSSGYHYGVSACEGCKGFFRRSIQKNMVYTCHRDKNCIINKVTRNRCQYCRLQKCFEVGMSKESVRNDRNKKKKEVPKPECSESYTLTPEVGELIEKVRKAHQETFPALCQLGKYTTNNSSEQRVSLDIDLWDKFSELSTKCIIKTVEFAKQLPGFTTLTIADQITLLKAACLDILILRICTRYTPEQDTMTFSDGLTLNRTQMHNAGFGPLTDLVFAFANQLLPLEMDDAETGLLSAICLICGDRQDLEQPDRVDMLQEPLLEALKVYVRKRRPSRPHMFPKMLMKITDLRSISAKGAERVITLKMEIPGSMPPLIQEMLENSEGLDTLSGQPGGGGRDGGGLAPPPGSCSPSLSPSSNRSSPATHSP
# Assay: ΔSV-CAT reporter cotransfection assay in CV-1 cells with RARα expression plasmid, ±RA
# Assay type: cell-based
# Parameters: expressed in transfected cells; host or cells: CV-1 (monkey kidney)
# Settings: RA 1 μM
# Text: Receptor expression plasmids used in the following cotransfection assays have been described previously (pRShTRβ [see Thompson, et al., Proc. Natl. Acad. Sci. U.S.A. 86: 3494-3498 (1989)]; pRShRARα [see Giguere, et al., Nature 330: 624-629 (1987)]; pRShRARβ and pRshRARγ [see Ishikawa, et al., Mol. Endocrinol, 4: 837-844 (1990)]; and pRShVDR, [Schule, et al., Cell 61: 497-504 (1990)]. A basal reporter plasmid ΔSV-CAT was constructed by replacing the TK promoter in TK-CAT [Damm, et al., Nature 339: 593-597 (1989)] with the SphI-HindIII fragment of the SV40 early promoter. All of the recombinant CAT reporter plasmids used herein harbor a single copy of the indicated oligonucleotides at the unique HindIII site upstream of the SV40 promoter. Identity of the inserted oligonucleotides was confirmed by sequencing. To improve production of receptor proteins in COS cells, a new eukaryotic expression vector pCMX was prepared by modifying the plasmid CDM8 [Seed, B., Nature 329: 840-842 (1987)]. The CDM8 was cut with MluI and StuI in order to release the DNA fragment encoding the CMV/T7 promoter, SV40 small t intron/poly A signal, polyoma virus enhancer/origin, and SV40 enhancer/origin. The resulting fragment was ligated to a larger fragment of PvuII-digested PUC19. An internal deletion was introduced between unique BamHI and BclI sites present in the DCM8 portion. The stuffer sequence flanked by XbaI sites was replaced with a synthetic polylinker coding for 5′-KpnI/Asp718-EcoRV-BamHI -MscI-NheI-3′, followed by a stretch of 5′-[…]-3′ (SEQ ID NO:48) which can function as a universal termination signal for protein translation. The coding sequence of the luciferase [de Wet, et al., Mol. Cell. Biol. 7: 725-737 (1987)] and human TRβ, RARα, and VDR was placed in the polylinker region of the pCMX, generating pCMX-LUC, Pcmx-Htrβ, pCMX-hRARα, and pCMX-hVDR, respectively. The translation start site of the RARα was modified to […] by attaching the synthetic linker encoding a consensus translation start signal [Hollenberg, et al., Cell 55: 899-906 (1988)]. […]
substance,measurement,value
"MHC-N: 23-nucleotide core of the wild-type sequence (MHC-TRE) (SEQ ID NO:14) (AGCTGGAGGTGACAGGAGGACAGCAAGCT; DNA, backbone not given here; further chemistry not fully specified)",RA response (in words),not RA response
